Measurements taken from PubChem BioAssay AID588807 (The Scripps Research Institute Molecular Screening Center, 2011).
Active and inactive are the calls of the source. No rule for the calls is given here.

Assays:
Experiment in all cases: competitive ABPP of Abhd10 versus anti-targets – biochemical, fluorescence, gel-based, mouse proteome, selectivity assay for PME-1 inhibitor project, late-stage follow-up (AID 588807)
[1] = system: APEH; details: anti-target, stronger effect = higher value
[2] = molecular target: Palmitoyl-protein thioesterase ABHD10, mitochondrial (Mus musculus) (UniProt Q6PE15); details: stronger effect = higher value
Sequence of Palmitoyl-protein thioesterase ABHD10, mitochondrial (Mus musculus) (Q6PE15 whole entry, looked up): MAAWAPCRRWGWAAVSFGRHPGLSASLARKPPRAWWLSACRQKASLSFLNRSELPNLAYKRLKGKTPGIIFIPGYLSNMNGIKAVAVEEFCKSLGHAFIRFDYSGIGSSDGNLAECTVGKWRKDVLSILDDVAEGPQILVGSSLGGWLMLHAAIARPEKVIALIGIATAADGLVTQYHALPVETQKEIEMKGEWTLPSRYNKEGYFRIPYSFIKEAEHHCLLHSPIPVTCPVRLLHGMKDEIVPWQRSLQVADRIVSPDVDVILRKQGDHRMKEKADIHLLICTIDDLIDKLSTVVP

[3] = system: Kiaa1363; details: anti-target, at 10 µM, stronger effect = higher value
[4] = molecular target: Prolyl endopeptidase (Mus musculus) (UniProt Q9QUR6); details: PREP, anti-target, stronger effect = higher value
Sequence of Prolyl endopeptidase (Mus musculus) (Q9QUR6 whole entry, looked up): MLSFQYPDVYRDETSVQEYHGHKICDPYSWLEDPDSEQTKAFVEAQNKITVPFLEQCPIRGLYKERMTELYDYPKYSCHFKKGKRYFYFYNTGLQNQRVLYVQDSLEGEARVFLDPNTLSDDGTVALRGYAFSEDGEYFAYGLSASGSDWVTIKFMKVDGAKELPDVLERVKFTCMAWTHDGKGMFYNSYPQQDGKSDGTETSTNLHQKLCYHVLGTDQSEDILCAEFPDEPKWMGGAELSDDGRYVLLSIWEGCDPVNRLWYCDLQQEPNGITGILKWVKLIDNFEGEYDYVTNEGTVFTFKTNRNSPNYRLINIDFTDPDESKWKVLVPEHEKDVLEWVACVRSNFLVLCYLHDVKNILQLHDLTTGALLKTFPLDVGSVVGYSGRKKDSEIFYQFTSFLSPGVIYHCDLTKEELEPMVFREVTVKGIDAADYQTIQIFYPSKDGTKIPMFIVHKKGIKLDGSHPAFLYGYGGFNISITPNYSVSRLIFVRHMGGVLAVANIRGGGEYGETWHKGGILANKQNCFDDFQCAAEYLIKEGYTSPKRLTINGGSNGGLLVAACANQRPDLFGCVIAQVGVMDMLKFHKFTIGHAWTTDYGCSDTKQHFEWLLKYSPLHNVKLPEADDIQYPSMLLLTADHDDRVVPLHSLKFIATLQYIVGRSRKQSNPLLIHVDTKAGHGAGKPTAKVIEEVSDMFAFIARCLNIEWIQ

[5] = system: Magl; details: anti-target, stronger effect = higher value
[6] = molecular target: Monoacylglycerol lipase ABHD6 (Mus musculus) (UniProt Q8R2Y0); details: anti-target, stronger effect = higher value
Sequence of Monoacylglycerol lipase ABHD6 (Mus musculus) (Q8R2Y0 whole entry, looked up): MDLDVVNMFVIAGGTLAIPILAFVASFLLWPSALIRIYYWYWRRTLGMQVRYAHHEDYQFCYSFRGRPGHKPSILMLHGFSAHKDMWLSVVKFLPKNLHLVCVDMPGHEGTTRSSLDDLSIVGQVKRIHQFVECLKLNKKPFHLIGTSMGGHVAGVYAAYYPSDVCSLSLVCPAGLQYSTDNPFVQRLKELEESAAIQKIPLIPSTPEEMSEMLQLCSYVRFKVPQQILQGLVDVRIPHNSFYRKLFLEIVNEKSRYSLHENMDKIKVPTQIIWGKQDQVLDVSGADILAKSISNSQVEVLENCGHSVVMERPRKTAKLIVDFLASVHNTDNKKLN

Compound | inhibition ([1]; at 10 µM) | inhibition ([2]; at 10 µM) | inhibition ([2]; inhibition, at 0.1 µM) | inhibition ([2]; inhibition, at 1 µM) | inhibition [3] | inhibition ([4]; at 10 µM) | inhibition ([4]; inhibition, at 1 µM) | inhibition ([5]; at 10 µM) | inhibition ([6]; at 10 µM) | inhibition ([6]; inhibition, at 1 µM) | inhibition ([1]; inhibition, at 1 µM) | inhibition ([6]; inhibition, at 0.1 µM) | inhibition ([4]; inhibition, at 0.1 µM) | inhibition ([5]; inhibition, at 0.1 µM)
CC[C@@]1(c2cccc(C)c2)C(=O)N(C(=O)OC(C)C)N1C(=O)OC(C)C | 75% (inactive) | 100% (inactive) | 30% | 100% | 0% (inactive) | 55% (inactive) | 20% | 0% (inactive) | 70% (inactive) | 20% | – | – | – | –
CC[C@]1(c2ccc(C)cc2)C(=O)N(C(=O)OC(C)C)N1C(=O)OC(C)C | 100% (inactive) | 45% (inactive) | – | – | 0% (inactive) | 0% (inactive) | – | 0% (inactive) | 0% (inactive) | – | 30% | – | – | –
CC[C@@]1(c2ccc(C)cc2)C(=O)N(C(=O)OC(C)C)N1C(=O)OC(C)C | 15% (inactive) | 95% | 90% | 90% | 0% (inactive) | 75% (inactive) | 30% | 0% (inactive) | 50% (inactive) | – | – | – | – | –
CCCOC(=O)N1C(=O)[C@@](CC)(c2ccc(C)cc2)N1C(=O)OCCC | 0% (inactive) | 95% | 95% | 95% | 25% (inactive) | 65% (inactive) | 25% | 80% (inactive) | 85% (inactive) | 25% | – | 10% | – | –
CC[C@@]1(c2ccc(OC)cc2)C(=O)N(C(=O)OC(C)C)N1C(=O)OC(C)C | 70% (inactive) | 100% (inactive) | – | 95% | 40% (inactive) | 30% (inactive) | – | 10% (inactive) | 10% (inactive) | – | – | – | – | –
CC[C@@]1(c2ccccc2)C(=O)N(C(=O)OC)N1C(=O)OC | 0% (inactive) | 10% (inactive) | – | – | 0% (inactive) | 0% (inactive) | – | 0% (inactive) | 0% (inactive) | – | – | – | – | –
CC[C@@]1(c2cccc(F)c2)C(=O)N(C(=O)OC)N1C(=O)OC | 0% (inactive) | 95% | 60% | 95% | 0% (inactive) | 70% (inactive) | 15% | 25% (inactive) | 25% (inactive) | – | – | – | – | –
CC[C@]1(c2cccc(C)c2)C(=O)N(C(=O)OC)N1C(=O)OC | 0% (inactive) | 85% (inactive) | – | 20% | 0% (inactive) | 0% (inactive) | – | 0% (inactive) | 0% (inactive) | – | – | – | – | –
CC[C@@]1(c2ccccc2C)C(=O)N(C(=O)OC)N1C(=O)OC | 55% (inactive) | 90% (inactive) | 20% | 15% | 25% (inactive) | 70% (inactive) | – | 10% (inactive) | 40% (inactive) | – | – | – | 20% | 10%
CC[C@@]1(c2cccc(C)c2)C(=O)N(C(=O)OC)N1C(=O)OC | 50% (inactive) | 100% (inactive) | 35% | 100% | 35% (inactive) | 85% (inactive) | 20% | 45% (inactive) | 50% (inactive) | – | – | – | – | –
CCOC(=O)N1C(=O)[C@@](CC)(c2ccccc2)N1C(=O)OCC | 55% (inactive) | 100% | 75% | 100% | 0% (inactive) | 90% (inactive) | 20% | 0% (inactive) | 65% (inactive) | 15% | – | – | – | –
